Data reported in patent EP2739618B1, “QUINAZOLINE COMPOUNDS AS SERINE/THREONINE KINASE INHIBITORS” (Array Biopharma, Inc., priority 2011, dated 2013).

Key:
[1] = target: T1, human ERK-2 (Mitogen Activated Kinase 1) (Homo sapiens, UniProt P28482); assay: ERK-2 Enzymatic Assay; assay type: biochemical; conditions: 5nM ERK-2 enzyme, 25µM ATP, S/T17 peptide substrate, single assay or mean of multiple assays
T1 construct: N-terminal 6-His fusion protein in E. coli and corresponding to aa 8-360; 6-His (N); made in house; host or cells: E. coli
In short: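 Recombinant N-terminal 6-His human ERK-2 (aa 8-360, E. coli) was tested with fluorescent Omnia S/T17 peptide at ambient temperature. Fluorescence (ex 340/em 495 nm) was read every 50 s for ~30 min.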

HCT116 cells = assay: Cell Proliferation/Viability Assay (Cell Titer-Blue); assay type: cell-based; conditions: Homo sapiens, HCT-116, 3-day (72-hour) incubation, single assay or mean of multiple assays
Description: Cell Proliferation/Viability Assay
Viable cells after a 3-day (72-hour) incubation with ERK compounds were quantified using the Cell Titer-Blue Cell Viability Assay from Promega.
Materials and Methods: HCT116 cells were plated in 96 well micro-plates at a density of 1,000 cells/well. The cells were allowed to attach to micro-plate overnight at 37 °C/5% CO2. After overnight attachment, diluted compounds were then added to the cells at a final concentration of 0.5% DMSO. After 3 days (72 hours) at 37 °C/5% CO2, the number of viable cells was determined using the Cell Titer-Blue Cell Viability Assay from Promega. Briefly, Cell Titer-Blue reagent were added to the cells and incubated for 1 hour. Fluorescence (560nmexcitation/590nmemission) was then read using a fluorescence micro-plate reader. Background from high concentration Erk-inhibited wells was subtracted. Representative data is in TABLE III (infra). The reported IC50 may be from a single assay or the mean of multiple assays.

[2] = system: PMA-stimulated P90RSK(Ser380) phosphorylation; assay: Cellular P90RSK(Ser380) Phosphorylation Assay; assay type: cell-based; conditions: Homo sapiens; HepG2 cells, 1.5 h compound incubation, PMA 100ng/mL 30 min, normalized to GAPDH signal; single assay or mean of multiple assays
Description: Cellular P90RSK(Ser380) Phosphorylation Assay
Inhibition of PMA-stimulated P90RSK(Ser380) phosphorylation was determined by the following in vitro cellular mechanistic assay, which comprises incubating cells with a compound for 1.5 h and quantifying fluorescent pP90RSK(Ser380) signal on fixed cells and normalizing to GAPDH signal.
Materials and Methods: HepG2 cells were obtained from ATCC and grown in DMEM supplemented with 10% fetal bovine serum. Cells were plated in 96-well plates at 35,000 cells/well and allowed to attach overnight at 37 °C/5% CO2. Diluted compounds were then added at a final concentration of 0.5% DMSO. After 1.5 h compound incubation, cells were stimulated with the addition of PMA (phorbol 12-myristate 13-acetate) at a final concentration of 100ng/mL; the PMA stimulation was a 30-min incubation at 37 °C/5% CO2. After the 30-minute PMA stimulation, cells were washed with PBS and fixed in 3.7% formaldehyde in PBS at room temperature for 15-20 min. This was followed by another wash in PBS and then permeabilization in 100% MeOH at room temperature for 10-15 min. Following the permeabilization incubation, cells were washed in PBS/0.05% Tween-20, followed by a block in Odyssey blocking buffer (LI-COR Biosciences) for at least 1 hour. Antibodies to phosphorylated P90RSK(Ser380) (Cell Signaling #9335, rabbit monoclonal) and GAPDH (Fitzgerald 10R-G109a, mouse monoclonal) were added to the cells and incubated overnight at 4 °C. pP90RSK(Ser380) antibody was used at a 1:250 dilution; GAPDH was used at a 1:10,000 dilution. After washing with PBS/0.05% Tween-20, the cells were incubated with fluorescently-labeled secondary antibodies (Anti-rabbit-Alexa Flour680, Invitrogen Cat#A21109; Anti-mouse-IRDye800CW, Rockland Inc. Cat#610-131-121) for 1 h. Both secondary antibodies were used at a 1:1000 dilution. Cells were then washed and analyzed for fluorescence at both wavelengths using the Odyssey Infrared Imaging System (LI-COR Biosciences). Phosphorylated P90RSK(Ser380) signal was normalized to GAPDH signal. Representative data is in TABLE III (infra). The reported IC50 may be from a single assay or the mean of multiple assays.

T1 sequence (P28482 8-360): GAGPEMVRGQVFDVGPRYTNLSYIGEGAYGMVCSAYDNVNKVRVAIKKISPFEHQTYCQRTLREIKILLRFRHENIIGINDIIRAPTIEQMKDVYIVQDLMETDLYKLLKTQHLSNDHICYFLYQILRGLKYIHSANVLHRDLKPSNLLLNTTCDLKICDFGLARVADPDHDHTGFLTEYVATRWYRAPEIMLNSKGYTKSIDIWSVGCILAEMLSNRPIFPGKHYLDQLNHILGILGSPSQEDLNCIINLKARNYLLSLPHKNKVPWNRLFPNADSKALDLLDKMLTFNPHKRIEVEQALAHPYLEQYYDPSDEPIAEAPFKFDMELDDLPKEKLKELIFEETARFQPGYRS

Row | IC50 ([1]; TABLE I) [nM] | IC50 (HCT116 cells) [nM] | IC50 ([1]; TABLE II) [nM] | Compound | IC50 [2] [nM]
1 | 2.3 | 298 | – | CC(C)Nc1ncc2ccc(C(=O)N[C@H](c3ccc(C(F)(F)F)c(F)c3)[C@@H]3CCCN3)cc2n1 (stereo in doubt) [Compound I-5, 2-isopropylamino-quinazoline-7-carboxylic acid [(S)-(3-fluoro-4-trifluoromethyl-phenyl)-(R)-pyrrolidin-2-yl-methyl]-amide] | 11.7
2 | – | 875 | – | C[C@@H](CO)Nc1ncc2ccc(C(=O)N[C@H](c3ccc(Cl)c(F)c3)c3cnn(C)c3)cc2n1 (stereo in doubt) [Compound I-14, 2-((S)-2-hydroxy-1-methyl-ethylamino)-quinazoline-7-carboxylic acid [(R)-(4-chloro-3-fluoro-phenyl)-(1-methyl-1H-pyrazol-4-yl)-methyl]-amide] | 59.8
3 | – | 2400 | – | C[C@@H](CO)Nc1ncc2ccc(C(=O)NC(c3ccc(Cl)c(F)c3)c3cnn(C)c3)cc2n1 (stereo partly drawn) [Compound I-1, N-((4-chloro-3-fluorophenyl)(1-methyl-1H-pyrazol-4-yl)methyl)-2-((S)-1-hydroxypropan-2-ylamino)quinazoline-7-carboxamide] | 75.5
4 | – | 851 | – | Cn1cc(C(NC(=O)c2ccc3cnc(NC4CCOCC4)nc3c2)c2ccc(Cl)c(F)c2)cn1 (stereo not drawn) [Compound I-2, 2-(Tetrahydro-pyran-4-ylamino)-quinazoline-7-carboxylic acid [(4-chloro-3-fluoro-phenyl)-(1-methyl-1H-pyrazol-4-yl)-methyl]-amide] | 22.7
5 | 2.1 | 272 | – | O=C(N[C@@H](c1ccc(C(F)(F)F)c(F)c1)[C@@H]1CCCN1)c1ccc2cnc(NC3CCOCC3)nc2c1 [Compound I-3, 2-(Tetrahydropyran-4-ylamino)-quinazoline-7-carboxylic acid [(S)-(3-fluoro-4-tnfluoromethyl-phenyl)-(S)-pyrrolidin-2-yl-methyl]-amide] | 46
6 | 1.4 | 274 | – | Cn1ccc([C@@H](NC(=O)c2cc(F)c3cnc(NC4CCOCC4)nc3c2)c2ccc(Cl)c(F)c2)n1 [Compound I-22, (S)-N-((4-chloro-3-fluorophenyl)(1-methyl-1H-pyrazol-3-yl)methyl)-5-fluoro-2-(tetrahydro-2H-pyran-4-ylamino)quinazoline-7-carboxamide] | 23.5
7 | 2.5 | 2100 | – | Cn1cc([C@@H](NC(=O)c2ccc3cnc(N[C@H]4CCOC[C@H]4F)nc3c2)c2ccc(Cl)c(F)c2)cn1 [Compound I-28, 2-((3S,4S)-3-fluoro-tetrahydropyran-4-ylamino)-quinazoline-7-carboxylic acid [(S)-(4-chloro-3-fluoro-phenyl)-(1-methyl-1H-pyrazol-4-yl)-methyl]-amide] | 87.4
8 | 3.6 | 5000 | – | O=C(NC(c1ccc(Cl)c(F)c1)c1ncno1)c1ccc2cnc(NC3CCOCC3)nc2c1 (stereo not drawn) [Compound I-34, 2-(tetrahydro-pyran-4-ylamino)-quinazoline-7-carboxylic acid [(4-chloro-3-fluoro-phenyl)-[1,2,4]oxadiazol-5-yl-methyl]-amide] | 79.1
9 | 2 | 44 | – | C[C@@H]1CC[C@H]([C@@H](NC(=O)c2ccc3cnc(NC4CCOCC4)nc3c2)c2ccc(Cl)c(F)c2)N1 [Compound I-35, 2-(tetrahydropyran-4-ylamino)-quinazoline-7-carboxylic acid [(S)-(4-chloro-3-fluoro-phenyl)-((2R,5R)-S-methyl-pyrrolidin-2-yl)-methyl]-amide] | 5.3
10 | 1.2 | 10 | – | O=C(N[C@@H](c1ccc(F)c(Cl)c1)[C@@]1(F)CCNC1)c1ccc2cnc(NC3CCOCC3)nc2c1 [Compound I-39] | 17.4
11 | – | – | 2.1 | COc1ccc([C@H](NC(=O)c2ccc3cnc(Nc4cc(C)nn4C)nc3c2)c2cnn(C)c2)cc1F [II-18] | 364
12 | – | – | 3.1 | Cn1cc([C@@H](NC(=O)c2ccc3cnc(Nc4ccnn4C)nc3c2)c2ccc(Cl)c(F)c2)cn1 [II-25] | 19.9
13 | – | – | 2.9 | COc1ccc([C@H](NC(=O)c2ccc3cnc(Nc4ccnn4C)nc3c2)c2ccnn2C)cc1F [II-38] | 38
